Experimental data as given in patent US11123439B2, “Antibody drug conjugates (ADCS) and antibody prodrug conjugates (APDCS) with enzymatically cleavable groups” (Bayer Pharma Aktiengesellschaft, priority 2015, dated 2021).

Biological target: T1, legumain (Homo sapiens, UniProt Q99538)
T1 construct: purchased R&D Systems 2199-CY
T1 sequence (Q99538 18-323 limits assumed): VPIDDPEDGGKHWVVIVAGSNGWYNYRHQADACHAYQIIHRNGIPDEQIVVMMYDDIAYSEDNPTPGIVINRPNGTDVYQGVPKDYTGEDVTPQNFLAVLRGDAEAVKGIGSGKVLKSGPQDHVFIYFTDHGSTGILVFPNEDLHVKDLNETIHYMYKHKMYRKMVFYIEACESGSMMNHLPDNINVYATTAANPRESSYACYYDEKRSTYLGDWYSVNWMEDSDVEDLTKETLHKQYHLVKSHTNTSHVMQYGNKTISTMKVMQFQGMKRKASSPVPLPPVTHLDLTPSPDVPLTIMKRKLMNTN
Test: Legumain assay (enzymatic cleavage of prodrug)
Format: biochemical
Details: recombinant human legumain, rh legumain 1 ng/μl, 50 mM MES buffer, 250 mM NaCl, pH 5.0, read-out: half-life of legumain cleavage to the target compound (converted)
Procedure: The legumain assay was conducted with recombinant human enzyme. The rh legumain enzyme solution (catalogue #2199-CY, R&D Systems) was diluted to the desired concentration in 50 mM Na acetate buffer/100 mM NaCl, pH4.0 and preincubated at 37° C. for 2 h. rh legumain was then adjusted to a final concentration of 1 ng/μl in 50 mM MES buffer, 250 mM NaCl, pH 5.0. For every legumain-cleavable prodrug to be examined, a mixture was made up in a micro reaction vessel (0.5 ml, from Eppendorf). For this purpose, the substrate solution was adjusted to the desired concentration (double concentration) with 50 mM MES buffer, 250 mM NaCl, pH 5.0. For the kinetic measurement of the enzymatic reaction, 250 μl of the legumain solution were first initially charged and the enzyme reaction was started by adding 250 μl of the substrate solution (final concentration: single concentration). At different times, 50 μL samples were taken. This sample was admixed immediately with 100 μl of ice-cold methanol in order to stop the enzymatic reaction and then frozen at −20° C. The times selected for sampling were after 0.5 h, 1 h, 3 h and 24 h. The samples were then analysed by means of RP-HPLC analysis and by LC-MS analysis. The determination of the toxophore released enabled the determination of the half-life t1/2 of the enzymatic reaction. […]

Q: Which half-life does the source give for `CNC(=O)[C@H](CCN(C(=O)CO)[C@@H](c1cc(-c2cc(F)ccc2F)cn1Cc1ccccc1)C(C)(C)C)NC(=O)[C@H](CC(N)=O)NC(=O)[C@H](C)NC(=O)[C@H](C)NC(=O)Cc1ccncc1` [Compound A, N-(Pyridin-4-ylacetyl)-L-alanyl-L-alanyl-N^1-[(2S)-4-[{(1R)-1-[1-benzyl-4-(2,5-difluorophenyl)-1H-pyrrol-2-yl]-2,2-dimethylpropyl}(glycoloyl)amino]-1-(methylamino)-1-oxobutan-2-yl]-L-aspartamide] here?
A: 1.1 h
